# Results taken from patent publication US10662184B2, “Benzenesulfonamide compounds and their use as therapeutic agents” (Xenon Pharmaceuticals Inc., priority 2016, dated 2020).
# Read-outs that look alike come from different tables or passages of the source.
# Tests used:
# [1] = molecular target: human NaV1.6 (Homo sapiens (Human), UniProt Q9UQD0); assay: Sodium Influx Assay (Flux), NaV1.6
# [2] = molecular target: human NaV1.1 (Homo sapiens (Human), UniProt P35498); assay: Sodium Influx Assay (Flux), NaV1.1; type: cell-based; settings: Trex HEK293 cells, ANG2 dye; arithmetic mean
# [3] = molecular target: human NaV1.5 (Homo sapiens (Human), UniProt Q14524); assay: cell-based
# [4] = molecular target: human NaV1.6 (SCN8A) (Homo sapiens (Human), UniProt Q9UQD0); assay: Electrophysiological Assay (EP, patch voltage clamp), NaV1.6; type: cell-based; settings: HEK-293 cells, whole-cell patch clamp, inactivated state; arithmetic mean
# From the text: Patch voltage clamp electrophysiology allows for the direct measurement and quantification of block of voltage-gated sodium channels (Nav's), and allows the determination of the time- and voltage-dependence of block which has been interpreted as differential binding to the resting, open, and inactivated states of the sodium channel (Hille, B., Journal of General Physiology (1977), 69: 497-515).
# Nav1.1, Nav1.5 and Nav1.6 cDNAs (NM_001165964 (SCN1A), NM_000335 (SCN5A) and NM_014191 (SCN8A), respectively) were stably expressed in HEK-293 cells.
# Sodium currents were measured using the patch clamp technique in the whole-cell configuration using either a PatchXpress automated voltage clamp or manually using an Axopatch 200B (Axon Instruments) or Model 2400 (A-M systems) amplifier. […] Control sodium currents were measured in 0.5% DMSO. […]
# Currents were recorded at 40 kHz sampling frequency, filtered at […], and stored using a Digidata-1322A analogue/digital interface with the pClamp software (Axon Instruments). […]
# The membrane potential was maintained at a voltage where inactivation of the channel is complete. The voltage is then stepped back to a very negative (Vhold=−150 mV) voltage for 20 ms and then a test pulse is applied to quantify the compound block. […]
# [5] = molecular target: human NaV1.1 (SCN1A) (Homo sapiens (Human), UniProt P35498); assay: Electrophysiological Assay (EP, patch voltage clamp), NaV1.1; type: cell-based; settings: HEK-293 cells, whole-cell patch clamp, inactivated state; arithmetic mean
# Method: Sodium currents were measured using the patch clamp technique in the whole-cell configuration using either a PatchXpress automated voltage clamp or manually using an Axopatch 200B (Axon Instruments) or Model 2400 (A-M systems) amplifier. […] In some studies, the external sodium was reduced by equimolar replacement with choline. […] All recordings were performed at ambient temperature in a bath chamber with a volume of 150 μL. Control sodium currents were measured in 0.5% DMSO. Controls and representative compounds of the invention were applied to the recording chamber through a 4-pinch or 8-pinch valve bath perfusion system manufactured by ALA Scientific Instruments.
# Series resistance compensation was applied (60-80%). […] All statistics in this study are given as mean±SD.
# The membrane potential was maintained at a voltage where inactivation of the channel is complete. The voltage is then stepped back to a very negative (Vhold=−150 mV) voltage for 20 ms and then a test pulse is applied to quantify the compound block. […] The percent decrease in sodium current following wash-on of compound was taken as the percent block of sodium channels.
# [6] = read-out: Flux NaV1.6 IC50, Trex HEK293 cells, ANG2 dye, arithmetic mean
# human NaV1.5, sequence (Q14524 other isoform, or with tags, fused parts or gaps): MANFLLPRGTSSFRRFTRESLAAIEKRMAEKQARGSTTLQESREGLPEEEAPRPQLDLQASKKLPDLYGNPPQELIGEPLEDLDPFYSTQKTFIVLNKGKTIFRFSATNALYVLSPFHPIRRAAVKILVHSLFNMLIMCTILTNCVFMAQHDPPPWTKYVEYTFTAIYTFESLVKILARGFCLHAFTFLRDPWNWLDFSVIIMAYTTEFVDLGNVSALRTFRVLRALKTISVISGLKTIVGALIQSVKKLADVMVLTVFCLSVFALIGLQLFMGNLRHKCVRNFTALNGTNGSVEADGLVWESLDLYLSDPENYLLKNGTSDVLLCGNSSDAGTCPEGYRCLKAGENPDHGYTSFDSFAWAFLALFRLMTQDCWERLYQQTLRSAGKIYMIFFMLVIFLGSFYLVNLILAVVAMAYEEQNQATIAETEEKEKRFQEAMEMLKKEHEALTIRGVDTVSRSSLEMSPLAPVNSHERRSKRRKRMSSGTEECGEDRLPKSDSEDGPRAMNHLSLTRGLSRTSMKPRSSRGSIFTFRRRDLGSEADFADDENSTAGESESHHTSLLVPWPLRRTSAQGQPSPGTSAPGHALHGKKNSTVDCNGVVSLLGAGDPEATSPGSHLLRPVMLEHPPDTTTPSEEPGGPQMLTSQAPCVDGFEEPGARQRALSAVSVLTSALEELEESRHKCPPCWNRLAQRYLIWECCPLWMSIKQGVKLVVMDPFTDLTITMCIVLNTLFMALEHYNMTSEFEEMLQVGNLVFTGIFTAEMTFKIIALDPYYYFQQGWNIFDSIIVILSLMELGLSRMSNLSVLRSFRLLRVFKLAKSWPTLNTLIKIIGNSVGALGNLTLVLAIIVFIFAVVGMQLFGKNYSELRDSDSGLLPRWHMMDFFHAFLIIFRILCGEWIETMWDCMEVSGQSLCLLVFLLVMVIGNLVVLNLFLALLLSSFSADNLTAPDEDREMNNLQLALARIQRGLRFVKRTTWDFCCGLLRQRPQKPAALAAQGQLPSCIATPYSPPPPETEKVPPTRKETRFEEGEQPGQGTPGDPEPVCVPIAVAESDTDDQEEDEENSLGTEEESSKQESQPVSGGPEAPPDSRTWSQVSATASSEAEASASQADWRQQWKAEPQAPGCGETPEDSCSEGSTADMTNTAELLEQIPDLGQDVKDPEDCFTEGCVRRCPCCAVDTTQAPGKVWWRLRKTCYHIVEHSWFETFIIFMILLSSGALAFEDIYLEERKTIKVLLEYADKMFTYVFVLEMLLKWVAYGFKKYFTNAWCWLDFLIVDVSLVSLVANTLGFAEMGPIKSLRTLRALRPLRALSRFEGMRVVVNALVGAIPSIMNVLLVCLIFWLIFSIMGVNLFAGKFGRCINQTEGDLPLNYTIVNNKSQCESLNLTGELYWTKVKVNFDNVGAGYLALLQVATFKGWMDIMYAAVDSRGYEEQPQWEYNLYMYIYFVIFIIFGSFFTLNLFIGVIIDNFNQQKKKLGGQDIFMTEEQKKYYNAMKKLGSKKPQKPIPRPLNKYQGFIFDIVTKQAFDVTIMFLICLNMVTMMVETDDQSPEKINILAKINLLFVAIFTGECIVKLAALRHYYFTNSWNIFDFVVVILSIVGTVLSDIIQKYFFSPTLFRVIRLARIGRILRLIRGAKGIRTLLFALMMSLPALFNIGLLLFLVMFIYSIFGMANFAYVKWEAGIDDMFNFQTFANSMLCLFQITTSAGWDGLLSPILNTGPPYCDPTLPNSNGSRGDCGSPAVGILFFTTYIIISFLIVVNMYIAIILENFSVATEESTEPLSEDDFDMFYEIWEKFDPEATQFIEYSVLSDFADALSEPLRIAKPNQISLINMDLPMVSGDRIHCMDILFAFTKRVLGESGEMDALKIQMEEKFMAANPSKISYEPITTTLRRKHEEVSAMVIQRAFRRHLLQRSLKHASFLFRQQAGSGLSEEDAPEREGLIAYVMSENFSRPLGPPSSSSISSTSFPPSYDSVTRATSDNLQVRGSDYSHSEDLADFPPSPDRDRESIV
# human NaV1.6 (SCN8A), sequence (Q9UQD0 whole entry): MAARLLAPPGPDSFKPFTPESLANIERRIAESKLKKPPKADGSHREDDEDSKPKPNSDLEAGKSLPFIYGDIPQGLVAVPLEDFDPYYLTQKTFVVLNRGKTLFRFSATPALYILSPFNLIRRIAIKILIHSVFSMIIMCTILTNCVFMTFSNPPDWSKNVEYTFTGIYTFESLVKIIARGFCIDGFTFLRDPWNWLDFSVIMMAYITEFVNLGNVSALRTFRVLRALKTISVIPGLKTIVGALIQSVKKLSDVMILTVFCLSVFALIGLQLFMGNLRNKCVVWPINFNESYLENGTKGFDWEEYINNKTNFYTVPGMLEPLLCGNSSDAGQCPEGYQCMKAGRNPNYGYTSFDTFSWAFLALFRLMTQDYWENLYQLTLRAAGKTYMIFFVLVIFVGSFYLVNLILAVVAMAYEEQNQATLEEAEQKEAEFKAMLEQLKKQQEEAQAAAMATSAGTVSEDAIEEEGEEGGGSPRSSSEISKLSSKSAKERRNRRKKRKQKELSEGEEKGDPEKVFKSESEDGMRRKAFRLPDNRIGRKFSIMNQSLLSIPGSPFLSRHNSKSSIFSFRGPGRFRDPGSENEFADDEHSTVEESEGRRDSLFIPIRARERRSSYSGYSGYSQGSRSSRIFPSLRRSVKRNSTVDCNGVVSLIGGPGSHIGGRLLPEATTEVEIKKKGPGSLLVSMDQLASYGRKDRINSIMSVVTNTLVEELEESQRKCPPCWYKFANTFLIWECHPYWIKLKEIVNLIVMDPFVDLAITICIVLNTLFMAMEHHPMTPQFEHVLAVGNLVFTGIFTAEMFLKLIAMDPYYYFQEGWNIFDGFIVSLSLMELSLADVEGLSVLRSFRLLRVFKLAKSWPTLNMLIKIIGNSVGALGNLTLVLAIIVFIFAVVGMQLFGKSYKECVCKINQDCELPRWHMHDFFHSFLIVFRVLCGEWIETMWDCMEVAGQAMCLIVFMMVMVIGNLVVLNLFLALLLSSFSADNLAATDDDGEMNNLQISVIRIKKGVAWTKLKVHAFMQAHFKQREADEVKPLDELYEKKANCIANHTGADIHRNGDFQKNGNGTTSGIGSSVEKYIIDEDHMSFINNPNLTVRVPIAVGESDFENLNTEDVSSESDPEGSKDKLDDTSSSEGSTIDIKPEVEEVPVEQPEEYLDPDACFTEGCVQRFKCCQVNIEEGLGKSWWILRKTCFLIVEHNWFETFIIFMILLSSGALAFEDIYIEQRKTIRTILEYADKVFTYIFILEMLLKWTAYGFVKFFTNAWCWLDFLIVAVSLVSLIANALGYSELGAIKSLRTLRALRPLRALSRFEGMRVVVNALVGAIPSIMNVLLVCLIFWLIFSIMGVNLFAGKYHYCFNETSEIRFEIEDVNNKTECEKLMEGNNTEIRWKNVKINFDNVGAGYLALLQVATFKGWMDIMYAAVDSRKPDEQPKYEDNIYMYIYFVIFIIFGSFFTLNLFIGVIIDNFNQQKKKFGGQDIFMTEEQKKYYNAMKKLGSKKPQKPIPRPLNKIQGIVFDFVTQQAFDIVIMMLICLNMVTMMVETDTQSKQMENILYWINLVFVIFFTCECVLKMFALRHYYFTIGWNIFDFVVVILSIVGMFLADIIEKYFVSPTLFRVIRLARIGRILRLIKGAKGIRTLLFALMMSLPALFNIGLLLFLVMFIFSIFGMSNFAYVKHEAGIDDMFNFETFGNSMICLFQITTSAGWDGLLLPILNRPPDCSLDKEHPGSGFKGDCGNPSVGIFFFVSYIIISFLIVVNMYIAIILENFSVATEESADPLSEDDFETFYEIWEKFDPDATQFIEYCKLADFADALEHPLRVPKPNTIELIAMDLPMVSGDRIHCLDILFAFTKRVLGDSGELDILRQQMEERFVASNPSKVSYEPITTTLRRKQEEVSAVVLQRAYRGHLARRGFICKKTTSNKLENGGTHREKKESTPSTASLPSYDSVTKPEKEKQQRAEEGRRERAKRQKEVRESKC
SMILES,"IC50 [1, 6] [µM]",IC50 [2] [µM],IC50 [1] [µM],IC50 [3] [µM],IC50 [4] [µM],IC50 [5] [µM]
"C[C@@H]1[C@H](N(C)c2cc(F)c(S(=O)(=O)Nc3cscn3)cc2Cl)CCN1Cc1ccccc1 (racemic) [Example 309, rac-4-(((2R,3R)-1-benzyl-2-methylpyrrolidin-3-yl)(methyl)amino)-5-chloro-2-fluoro-N-(thiazol-4-yl)benzenesulfonamide]",6.86,8.44,,,,
"Cc1cccc(CN2CC[C@H](Oc3ccc(S(=O)(=O)Nc4nccs4)cc3Cl)[C@H](C)C2)c1 (relative stereo) [Example 9A, 3-chloro-4-((cis-3-methyl-1-(3-methylbenzyl)piperidin-4-yl)oxy)-N-(thiazol-2-yl)benzenesulfonamide]",,,1.75,,,
"Cc1cccc(CN2CC[C@@H](Oc3ccc(S(=O)(=O)Nc4nccs4)cc3Cl)[C@H](C)C2)c1 (relative stereo) [Example 9B, 3-chloro-4-((trans-3-methyl-1-(3-methylbenzyl)piperidin-4-yl)oxy)-N-(thiazol-2-yl)benzenesulfonamide]",,,0.874,8.75,,
"C[C@H]1C[C@@H](Oc2ccc(S(=O)(=O)Nc3nccs3)cc2Cl)CCN1Cc1ccccc1 (relative stereo) [Example 72, 4-((cis-1-benzyl-2-methylpiperidin-4-yl)oxy)-3-chloro-N-(thiazol-2-yl)benzenesulfonamide]",,6.81,6.07,13.5,,
"C[C@@H]1C[C@@H](Oc2ccc(S(=O)(=O)Nc3nccs3)cc2Cl)CCN1Cc1ccccc1 (relative stereo) [Example 73, 4-((trans-1-benzyl-2-methylpiperidin-4-yl)oxy)-3-chloro-N-(thiazol-2-yl)benzenesulfonamide]",,5.85,1.88,13.1,,
"C[C@H]1CN(Cc2ccccc2)C[C@@H]1Nc1ccc(S(=O)(=O)Nc2nccs2)cc1Cl (relative stereo) [Example 74, 4-((trans-1-benzyl-4-methylpyrrolidin-3-yl)amino)-3-chloro-N-(thiazol-2-yl)benzenesulfonamide]",,1.54,0.167,8.67,0.025,1.03
"C[C@@H]1CN(Cc2ccccc2)C[C@@H]1Nc1ccc(S(=O)(=O)Nc2nccs2)cc1Cl (relative stereo) [Example 75, 4-((cis-1-benzyl-4-methylpyrrolidin-3-yl)amino)-3-chloro-N-(thiazol-2-yl)benzenesulfonamide]",,4.19,0.661,8.99,,
"C[C@@H](c1ccccc1)N1CC[C@H](N(C)c2cc(F)c(S(=O)(=O)Nc3cccc(F)n3)cc2Cl)C1 [Example 43, 2,2,2-trifluoroacetate]",,7.87,1.89,17.1,,
"O=S(=O)(Nc1cscn1)c1ccc(O[C@@H]2C[C@H]3CC[C@@H](C2)N3Cc2cccc(C(F)F)c2)c(Cl)c1 [Example 256, 3-chloro-4-(((1R,3s,5S)-8-(3-(difluoromethyl)benzyl)-8-azabicyclo[3.2.1]octan-3-yl)oxy)-N-(thiazol-4-yl)benzenesulfonamide]",3.31,4.41,,,,
